# Data: ChEMBL document CHEMBL5346916, “Discovery of acridine-based LSD1 inhibitors as immune activators targeting LSD1 in gastric cancer” (Eur J Med Chem, 2023)
# Calls of active or inactive are those of the source. No cut-off for these calls is given here.
# Assays:
# [1] = target: T1, Lysine-specific histone demethylase 1A (Homo sapiens, UniProt O60341); test: Inhibition of recombinant LSD1 (unknown origin) expressed in Escherichia coli BL21(DE3) strain using H3K4me2 peptide as substrate at 10 uM incubated for 30 mins by fluorescence based analysis relative to control
# [2] = target: T1, Lysine-specific histone demethylase 1A; test: Inhibition of recombinant LSD1 (unknown origin) expressed in Escherichia coli BL21(DE3) strain using H3K4me2 peptide as substrate incubated for 30 mins by fluorescence based analysis
# [3] = target: T1, Lysine-specific histone demethylase 1A; test: Binding affinity to recombinant LSD1 (unknown origin) assessed as thermal stability at 4 uM by thermal shift assay
# [4] = target: T1, Lysine-specific histone demethylase 1A; test: Inhibition of LSD1 (unknown origin) human BGC-823 cells assessed as suppression of H3K4me1 methylation measured after 5 days by Western blot analysis; assay type: cell-based; conditions: dose 1-4 µM, time 5.0 day
# [5] = target: T1, Lysine-specific histone demethylase 1A; test: Inhibition of LSD1 in human BGC-823 cells assessed as suppression of H3K4me2 methylation measured after 5 days by Western blot analysis; assay type: cell-based; conditions: dose 1-4 µM, time 5.0 day
# [6] = test system: BGC-823; test: Inhibition of stemness in human BGC-823 cells assessed as inhibition of CD44 expression at 1 to 4 uM measured after 5 days by Western blot analysis; assay type: functional, cell-based; conditions: dose 1-4 µM, time 5.0 day
# [7] = test system: BGC-823; test: Inhibition of stemness in human BGC-823 cells assessed as inhibition of OCT4 expression at 1 to 4 uM measured after 5 days by Western blot analysis; assay type: functional, cell-based; conditions: dose 1-4 µM, time 5.0 day
# [8] = test system: BGC-823; test: Inhibition of stemness in human BGC-823 cells assessed as inhibition of SOX2 expression at 1 to 4 uM measured after 5 days by Western blot analysis; assay type: functional, cell-based; conditions: dose 1-4 µM, time 5.0 day
# [9] = test system: BGC-823; test: Antimigratory activity against human BGC-823 cells assessed as reduction in cell migration at 1 to 4 uM measured after 24 to 48 hrs by wound healing assay; assay type: functional, cell-based; conditions: dose 1-4 µM, time 24-48 hrs
# [10] = test system: BGC-823; test: Downregulation of PD-L1 level in human BGC-823 cells incubated for 5 days by Western blot analysis; assay type: functional, cell-based; conditions: dose 1-4 µM, time 5.0 day
# [11] = test system: MFC; test: Downregulation of PD-L1 level in […] cells incubated for 5 days by Western blot analysis; assay type: functional, cell-based; conditions: dose 1-4 µM, time 5.0 day
# [12] = test system: BGC-823; test: Downregulation of PD-L1 mRNA level in human BGC-823 cells at 1 to 4 uM incubated for 5 days by Q-RT-PCR analysis; assay type: functional, cell-based; conditions: dose 1-4 µM, time 5.0 day
# [13] = test system: MFC; test: Downregulation of PD-L1 mRNA level in […] cells at 1 to 4 uM incubated for 5 days by Q-RT-PCR analysis; assay type: functional, cell-based; conditions: dose 1-4 µM, time 5.0 day
# [14] = test system: MFC; test: Antitumor activity against mouse MFC cells xenografted in 615 mouse model assessed as suppression in tumor growth administered as IG daily and measured every other day for 14 days by caliper method; assay type: functional; conditions: dose 10-40 mg/kg, time 14.0 day
# [15] = test system: MFC; test: Antitumor activity against mouse MFC cells xenografted in 615 mouse model assessed as reduction in tumor weight at 10 to 40 mg/kg, IG administered daily and measured every other day for 14 days […]; assay type: functional, organism-based; conditions: dose 10-40 mg/kg, time 14.0 day
# [16] = test system: MFC; test: Antitumor activity against mouse MFC cells xenografted in 615 mouse model assessed as decrease in PD-L1 level administered as IG daily and measured every other day for 14 days by Western blot analysis; assay type: functional; conditions: dose 10-40 mg/kg, time 14.0 day
# [17] = test system: MFC; test: Antitumor activity against mouse MFC cells xenografted in 615 mouse model assessed as increase in IFN-gamma m-RNA level at 10 to 40 mg/kg, IG administered daily and measured every other day for 14 days; assay type: functional, organism-based; conditions: dose 10-40 mg/kg, time 14.0 day
# [18] = test system: MFC; test: Antitumor activity against mouse MFC cells xenografted in 615 mouse model assessed as increase in TNF-alpha m-RNA level at 10 to 40 mg/kg, IG administered daily and measured every other day for 14 days; assay type: functional, organism-based; conditions: dose 10-40 mg/kg, time 14.0 day
# [19] = test system: MFC; test: Antitumor activity against mouse MFC cells xenografted in 615 mouse model assessed as increase in IL-2 m-RNA level at 10 to 40 mg/kg, IG administered daily and measured every other day for 14 days; assay type: functional, organism-based; conditions: dose 10-40 mg/kg, time 14.0 day
# [20] = test system: BGC-823; test: Cytotoxicity against human BGC-823 cells co-cultured with T cells assessed as reduction in cell viability measured after 5 days by CCK8 method; assay type: functional, cell-based; conditions: dose 1-4 µM, time 5.0 day
# [21] = Cytotoxicity against […] cells at 2 uM incubated for 5 days by CCK-8 method relative to control; assay type: functional; conditions: time 5 day
# [22] = target: Programmed cell death protein 1/Programmed cell death 1 ligand 1 (Homo sapiens) (UniProt Q15116+Q9NZQ7); test: Inhibition of recombinant PD-1 binding to PD-L1 in human BGC-823 cells measured after 5 days by DAPI staining based confocal microscopy analysis; assay type: cell-based; conditions: dose 1-4 µM, time 5.0 day
# [23] = test system: BGC-823; test: Cytotoxicity against human BGC-823 cells co-cultured with T cells assessed as increase in 4-1BB level at 2 uM measured after 5 days by Q-RT-PCR method; assay type: functional, cell-based; conditions: time 5.0 day
# [24] = test system: BGC-823; test: Cytotoxicity against human BGC-823 cells co-cultured with T cells assessed as increase in CCR7 level at 2 uM measured after 5 days by Q-RT-PCR method; assay type: functional, cell-based; conditions: time 5.0 day
# [25] = test system: BGC-823; test: Cytotoxicity against human BGC-823 cells co-cultured with T cells assessed as increase in IFN-gamma level at 2 uM measured after 5 days by Q-RT-PCR method; assay type: functional, cell-based; conditions: time 5.0 day
# [26] = test system: BGC-823; test: Cytotoxicity against human BGC-823 cells co-cultured with T cells assessed as increase in IL-2 level at 2 uM measured after 5 days by Q-RT-PCR method; assay type: functional, cell-based; conditions: time 5.0 day
# [27] = test system: BGC-823; test: Cytotoxicity against human BGC-823 cells co-cultured with T cells assessed as increase in TNF-alpha level at 2 uM measured after 5 days by Q-RT-PCR method; assay type: functional, cell-based; conditions: time 5.0 day
# [28] = Toxicity in 615 mouse assessed as change in body weight at 10 to 40 mg/kg, IG administered daily and measured every other day for 14 days; assay type: organism-based; conditions: in vivo, po, 336 h, dose 10-40 mg/kg, time 14 day
# [29] = Toxicity in 615 mouse assessed as at 10 to 40 mg/kg, IG liver injury administered daily and measured every other day for 14 days; assay type: organism-based; conditions: in vivo, po, 336 h, dose 10-40 mg/kg, time 14 day
# [30] = Toxicity in 615 mouse assessed as at 10 to 40 mg/kg, IG kidney injury administered daily and measured every other day for 14 days; assay type: organism-based; conditions: in vivo, po, 336 h, dose 10-40 mg/kg, time 14 day
smiles,measurement,setting,value
COc1ccc2nc3ccccc3c(Nc3ccc(N4CCN(C)CC4)cc3)c2c1,inhibition,[1],100%
same,IC50,[2],230 nM
CSc1ccc(Nc2c3ccccc3nc3ccccc23)cc1,inhibition,[1],79.7%
same,IC50,[2],740 nM
Cc1ccc2cc(Nc3c4ccccc4nc4ccccc34)ccc2n1,inhibition,[1],68.6%
same,IC50,[2],3860 nM
Nc1ccc(Nc2c3ccccc3nc3ccccc23)cc1,inhibition,[1],100%
same,IC50,[2],600 nM
Nc1ccccc1Nc1c2ccccc2nc2ccccc12,inhibition,[1],100%
same,IC50,[2],8230 nM
CN1CCN(c2ccc(Nc3c4ccccc4nc4c(N(C)C)cccc34)cc2)CC1,inhibition,[1],97%
same,IC50,[2],6030 nM
c1ccc2c(NCCN3CCOCC3)c3ccccc3nc2c1,inhibition,[1],22.4%
COc1ccc2c(Nc3ccc(N4CCN(C)CC4)cc3)c3ccccc3nc2c1,inhibition,[1],100%
same,IC50,[2],140 nM
c1ccc(Nc2c3ccccc3nc3ccccc23)cc1,inhibition,[1],99.2%
same,IC50,[2],1050 nM
CC(C)c1ccc2nc3ccccc3c(Nc3ccc(N4CCN(C)CC4)cc3)c2c1,inhibition,[1],100%
same,IC50,[2],230 nM
CCn1c2ccccc2c2ccc(Nc3c4ccccc4nc4ccccc34)cc21,inhibition,[1],97.2%
same,IC50,[2],700 nM
Cc1cc2nc3ccccc3c(Nc3ccc(N4CCN(C)CC4)cc3)c2cc1C,inhibition,[1],100%
same,IC50,[2],85 nM
Cc1ccc2nc3c(C)c(C)ccc3c(Nc3ccc(N4CCN(C)CC4)cc3)c2c1,inhibition,[1],100%
same,IC50,[2],100 nM
c1ccc(CN2CCN(c3ccc(Nc4c5ccccc5nc5ccccc45)cc3)CC2)cc1,inhibition,[1],97%
same,IC50,[2],2390 nM
Nc1ccc(Oc2c3ccccc3nc3ccccc23)cc1,inhibition,[1],100%
same,IC50,[2],1720 nM
CC(=O)Nc1ccc(Nc2c3ccccc3nc3ccccc23)cc1,inhibition,[1],67.8%
same,IC50,[2],3540 nM
CCN1CCN(c2ccc(Nc3c4ccccc4nc4ccccc34)cc2)CC1,inhibition,[1],100%
same,IC50,[2],110 nM
CN1CCN(c2ccc(Nc3c4ccccc4nc4ccc(Cl)cc34)cc2)CC1,inhibition,[1],100%
same,IC50,[2],280 nM
CN1CCN(Cc2ccc(Nc3c4ccccc4nc4ccccc34)cc2)CC1,inhibition,[1],45.6%
CS(=O)(=O)Nc1ccc(Nc2c3ccccc3nc3ccccc23)cc1,inhibition,[1],100%
same,IC50,[2],660 nM
Fc1ccc(C(c2ccc(F)cc2)N2CCN(c3ccc(Nc4c5ccccc5nc5ccccc45)cc3)CC2)cc1,inhibition,[1],68.1%
same,IC50,[2],710 nM
COc1cccc2c(Nc3ccc(N4CCN(C)CC4)cc3)c3ccccc3nc12,inhibition,[1],100%
same,IC50,[2],130 nM
CN1CCN(c2ccc(Nc3c4ccccc4nc4ccccc34)cc2)CC1,inhibition,[1],100%
same,IC50,[2],73 nM
same,Activity,[3],Active
same,inhibition,[4],Dose-Dependent Effect
same,inhibition,[5],Dose-Dependent Effect
same,inhibition,[6],Active
same,inhibition,[7],Active
same,inhibition,[8],Active
same,Activity,[9],Active
same,Activity,[10],Dose-Dependent Effect
same,Activity,[11],Dose-Dependent Effect
same,Activity,[12],Active
same,Activity,[13],Active
same,Activity,[14],Dose-Dependent Effect
same,Activity,[15],Active
same,Activity,[16],Dose-Dependent Effect
same,Activity,[17],Active
same,Activity,[18],Active
same,Activity,[19],Active
same,Activity,[20],Dose-Dependent Effect
same,Activity,[21],<10%
same,inhibition,[22],Dose-Dependent Effect
same,Activity,[23],Active
same,Activity,[24],Active
same,Activity,[25],Active
same,Activity,[26],Active
same,Activity,[27],Active
same,Activity,[28],Toxic
same,Activity,[29],Non-Toxic
same,Activity,[30],Non-Toxic
COc1ccc(Nc2c3ccccc3nc3ccccc23)cc1,inhibition,[1],100%
same,IC50,[2],1160 nM
Cc1cnc(NS(=O)(=O)c2ccc(Nc3c4ccccc4nc4ccccc34)cc2)o1,inhibition,[1],19.2%
c1ccc2c(Nc3ccc4c(c3)OCCO4)c3ccccc3nc2c1,inhibition,[1],97.7%
same,IC50,[2],850 nM
c1ccc2c(Nc3ccc(N4CCCCC4)cc3)c3ccccc3nc2c1,inhibition,[1],25%
Nc1ccc(Sc2c3ccccc3nc3ccccc23)cc1,inhibition,[1],100%
same,IC50,[2],970 nM
COc1cc(NS(C)(=O)=O)ccc1Nc1c2ccccc2nc2ccccc12 [AMSACRINE],inhibition,[1],100%
same,IC50,[2],880 nM
O=C1COCCN1c1ccc(Nc2c3ccccc3nc3ccccc23)cc1,inhibition,[1],41%
N#Cc1ccc(Nc2c3ccccc3nc3ccccc23)cc1,inhibition,[1],29.8%
c1ccc2c(Nc3ccc(N4CCOCC4)cc3)c3ccccc3nc2c1,inhibition,[1],100%
same,IC50,[2],450 nM
c1ccc2c(NN3CCCCC3)c3ccccc3nc2c1,inhibition,[1],95.3%
same,IC50,[2],1660 nM
c1ccc2c(Nc3ccc(N4CCNCC4)cc3)c3ccccc3nc2c1,inhibition,[1],100%
same,IC50,[2],220 nM
NS(=O)(=O)c1ccc(Nc2c3ccccc3nc3ccccc23)cc1,inhibition,[1],4.01%
Cc1ccc(Nc2c3ccccc3nc3ccccc23)cc1,inhibition,[1],57.9%
same,IC50,[2],3620 nM
CC(C)c1ccc(Nc2c3ccccc3nc3ccccc23)cc1,inhibition,[1],43.4%
